Assay results published in publication PMC11121535, “Inhibition of Shikimate Kinase from Methicillin-Resistant Staphylococcus aureus by Benzimidazole Derivatives. Kinetic, Computational, Toxicological, and Biological Activity Studies” (International Journal of Molecular Sciences, 2024).
Where two headings read alike, the source gives them in different places. Values belong to the compound of their own block, whether it stands above or below them.

Assays:
shikimate kinase (SaSK) [1] = target: T1, shikimate kinase (SaSK) (Staphylococcus aureus, UniProt Q5HFM1); assay: pyruvate kinase/lactate dehydrogenase coupled assay with purified SaSK; Lineweaver-Burk (Ki […] vs shikimate, […] vs ATP); type: biochemical
T1 construct: gene aroK

shikimate kinase (SaSK) [2] = target: T2, shikimate kinase (SaSK) (Staphylococcus aureus, UniProt Q5HFM1); assay: biochemical; parameters: Coupled PK/LDH assay of purified SaSK, NADH oxidation at 340 nm, fixed-concentration inhibition screen, 25 °C
T2 construct: gene aroK
T2 sequence (Q5HFM1 1-174): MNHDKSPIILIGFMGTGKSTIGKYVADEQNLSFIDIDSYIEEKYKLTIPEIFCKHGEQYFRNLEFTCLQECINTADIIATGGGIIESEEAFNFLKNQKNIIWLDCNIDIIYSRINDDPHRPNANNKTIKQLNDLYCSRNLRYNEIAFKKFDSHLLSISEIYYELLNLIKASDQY
Description: The activity of purified SaSK was measured by a coupled assay described by Favela et al., [67] following the oxidation of NADH to NAD, monitored at 340 nm using an Hp Agilent 8453 UV-VIS spectrophotometer. The assay mixture contained 100 mM Tris-HCl pH 7.6, 5 mM MgCl2, 100 mM KCl, 2 mM ATP, 1 mM shikimate, 1 mM phosphoenolpyruvate, 6 μg/mL pyruvate kinase, 6 μg/mL lactate dehydrogenase, 0.25 mM NADH, 10% of dimethyl sulfoxide (DMSO), and 70 ng of purified SaSK protein. All assays were performed in triplicate at 25 °C. It is important to mention that at the percentage of DMSO used, the activity of the enzyme was not affected. The primary screening of the benzimidazole compound library was carried out at a fixed concentration of 200 µM or at the maximum solubility possible for compounds with poor solubility in assay conditions. All the compounds were dissolved in DMSO.

shikimate kinase (SaSK) [3] = target: T1, shikimate kinase (SaSK); assay: pyruvate kinase/lactate dehydrogenase coupled assay with purified SaSK; Lineweaver-Burk (Ki […] vs shikimate, […] vs ATP); type: biochemical; remark: listed apart in the source
shikimate kinase (SaSK) [4] = target: T1, shikimate kinase (SaSK); assay: coupled enzyme assay, purified SaSK, % inhibition at […]; type: biochemical

SMILES: O=C(NN=Cc1ccc([N+](=O)[O-])o1)c1ccc2[nH]cnc2c1 [C1, N′-[(5-Nitrofuran-2-yl)methylene]-1H-benzimidazole-5-carbohydrazide]
Ki (shikimate kinase (SaSK) [1]): 48 µM
inhibition at 70 µM (shikimate kinase (SaSK) [2]): 50%

SMILES: Cn1c(C(F)(F)F)nc2cc(C(=O)NN=Cc3ccc([N+](=O)[O-])o3)ccc21 [C2, 1-Methyl-N′-[(5-nitrofuran-2-yl)methylene]-2-(trifluoromethyl)-1H-benzimidazole-5-carbohydrazide]
Ki (shikimate kinase (SaSK) [3]): 50 µM
inhibition at 100 µM (shikimate kinase (SaSK) [2]): 60%

inhibition at 100 µM (shikimate kinase (SaSK) [4]): 43%
SMILES: O=C(NN=Cc1ccc([N+](=O)[O-])o1)c1ccc2[nH]c(C(F)(F)F)nc2c1 [C3, N′-[(5-Nitrofuran-2-yl)methylene]-2-(trifluoromethyl)-1H-benzimidazole-5-carbohydrazide]

inhibition at 100 µM (shikimate kinase (SaSK) [4]): 40%
SMILES: Cn1cnc2cc(C(=O)NN=Cc3ccc([N+](=O)[O-])o3)ccc21 [C4, 1-Methyl-N′-[(5-nitrofuran-2-yl)methylene]-1H-benzimidazole-5-carbohydrazide]
